Patent publication US20160310519A1, “MODIFIED G-QUADRUPLEX NANOPARTICLES” (NANYANG TECHNOLOGICAL UNIVERSITY, priority 2013, published 2016)

How the values were obtained:
[1] = CD melting experiments of multiple N2-modified G-quadruplexes in low salt; format: physicochemical; conditions: low salt (1 mM KPi+1 mM KCl), CD at 290 nm
Experimental: CD melting experiments were performed for the unmodified sequence and for sequences containing multiple N2-modifications. Samples contained 4-5 μM DNA by strand concentration in 1 mM KCl and 1 mM KPi. Samples were heated to 95° C. (98° C. for N2-Ball-with-Hair sample) and cooled to 15° C. at a rate of 0.2° C./min. Samples were then heated in a similar manner. Data was recorded every 0.5° C. at 290 nm and corrected by subtraction at 320 nm. Normalized melting curves are used to determine the melting temperature (Tm) of modified sequences, which is taken as an average of the heating and cooling curves.
The designed sequences were tested in a “low salt” solution of 1 mM KPi+1 mM KCl. Of the sequences tested with multiple modifications, SEQ ID Nos. 38, 39, 41 and 42 were determined to maintain the (3+1) conformation by analysis of ^1H NMR and CD spectra, which were highly similar to SEQ ID NO:1 (FIG. 4).
Additionally, these changes in stability were roughly equivalent to the sum of stability changes observed for the individual single-position substitutions.

[2] = Temperature dependent CD spectra under physiological salt conditions; format: physicochemical
Experimental: Spectra were recorded on a JASCO-815 spectropolarimeter (Tokyo, Japan). Samples contained a DNA strand concentration of 4-5 μM. […] Spectra were normalized through subtracting by the CD absorbance at 320 nm and dividing by concentration of the sample determined by concurrent UV absorption measurements. Samples were annealed prior to recording of CD spectra by heating to 100° C. and allowed to cool slowly at room temperature.
The stability of the “Ball with Hair” structure formed by SEQ ID NO:42 under “physiological salt” conditions (10 mM Kpi+130 mM KCL) was similar to those experienced in a cellular environment. NMR spectra of SEQ ID NO:42 under physiological salt conditions matched the spectra recorded in low salt conditions.

Substance: SEQ ID NO:38: contains two ^HexG substitutions into separate grooves in positions that were highly stabilizing in the single-substitutions studies (TTNGGTTANGGTTAGGGTTAGGGA; two N2-hexyl guanine modifications, chemistry not fully specified)
- Δ Tm [1]: +6.9 °C

Substance: SEQ ID NO:39: contains two ^MetG substitutions of guanines that neighbors within the wide groove (TTGGGTTAGNNTTAGGGTTAGGGA; two N2-methyl guanine modifications, chemistry not fully specified)
- Δ Tm [1]: +18.2 °C

Substance: SEQ ID NO:41: designed to contain a modification in each groove of the G-quadruplex nanoparticle (TTNGGTTANGNTTANGGTTAGGGA; DNA, backbone and the base at N not given here; N2-modified guanines at marked positions)
- Δ Tm [1]: +26.6 °C

Substance: SEQ ID NO:42: containing eight ^HexG modifications towards the design of a "Ball with Hair" type of nanoparticle (TTNNGTTANGNTTANGNTTAGNNA; eight N2-hexyl guanine modifications, chemistry not fully specified)
- melting temperature ([2]; physiological K+ conditions (10 mM KPi+130 mM KCl)): > 95 °C
- CD signal intensity observed at 95° C. ([2]; physiological salt (10 mM KPi+130 mM KCl), 95° C.): more than 80%
- melting temperature [1]: 91.7 °C
- Δ Tm [1]: +46.2 °C
- Δ Tm ([1]; listed as ball with hair): 46 °C

Substance: SEQ ID NO:43: contains a variety of 8 N2-modifications aimed to maximize the thermal stability (TTNGGTTANGNTTANGNTTANGNA; DNA, backbone and the base at N not given here; further chemistry not fully specified)
- Δ Tm [1]: +35.6 °C
